IC50 data for 62 compounds are collected here from PubChem BioAssay AID588588 (Sanford-Burnham Center for Chemical Genomics, 2011).

Usually IC50 stands for the point on the concentration scale where inhibition reaches its midpoint.

Active and inactive are the calls of the source. No rule for the calls is given here. A value given as a limit tells only on which side of the number the result lay.

For this experiment, the target named is glucose-6-phosphate dehydrogenase-6-phosphogluconolactonase (Plasmodium falciparum 3D7). The experiment is described as follows: inhibition of P. falciparum G6PD activity – biochemical, end-point NADPH detection, orthogonal assay, SAR follow-up (AID 588588). Conditions: recombinant PfG6PD-6PGL, direct NADPH end-point detection.
Regarding `Cc1ccc(C(=O)Nc2nnc(S(=O)(=O)N3CCCCCC3)s2)cc1`, the IC50 is > 80 µM (inactive).
Consider `Cc1ccc(C(=O)Nc2nnc(S(=O)(=O)N3CCCc4ccccc43)s2)cc1`, for which the IC50 was > 80 µM (inactive).
Consider `COc1ccc(/C=C2/Sc3ccc(C(=O)NCCN4CCCC4)cc3NC2=O)cc1`, for which the IC50 is > 80 µM (inactive).
On to `CCN(CCNC(=O)c1ccc2c(c1)N(Cc1cc(C)ccc1C)C(=O)c1ccccc1S2)c1ccccc1`, for which the IC50 was > 80 µM (inactive).
Next, `CCC(C)N(CCNC(=O)c1ccc2c(c1)NC(=O)c1ccccc1S2)C1CCCCC1` (configuration not stated): 6.22 µM; `O=C1Nc2cc(C(=O)NCCN3CCCCC3)ccc2S/C1=C\c1ccccc1F`: > 80 µM (inactive).
As for `Cc1ccccc1C(=O)Nc1nnc(S(=O)(=O)N2CCCc3ccccc32)s1`, the IC50 is > 80 µM (inactive).
For `O=C(Nc1nnc(S(=O)(=O)N2CCCCC2)s1)c1cccc(F)c1`, the IC50 was > 80 µM (inactive).
Next, `CCN1CCCC1CNC(=O)c1ccc2c(c1)NC(=O)/C(=C/c1ccccc1)S2` (configuration not stated): > 80 µM (inactive).
Regarding `CCN(CC)CCNC(=O)c1ccc2c(c1)N(Cc1ccc(C)cc1)C(=O)c1ccccc1S2`, the IC50 is > 80 µM (inactive).
Next, `CN(C)CCNC(=O)c1ccc2c(c1)NC(=O)/C(=C\c1cccc(Cl)c1)S2`: > 80 µM (inactive); `COc1ccc(C(=O)Nc2nnc(S(=O)(=O)N3CCCCCC3)s2)cc1`: > 80 µM (inactive).
In the case of `CCN(CC)CCNC(=O)c1ccc2c(c1)N(Cc1cc(C)ccc1C)C(=O)c1ccccc1S2` it was > 80 µM (inactive); in that of `CCN1CCCC1CNC(=O)c1ccc2c(c1)NC(=O)/C(=C\c1ccc(C)cc1)S2` (configuration not stated), > 80 µM (inactive); in that of `O=C1Nc2cc(C(=O)NCCN3CCCCCC3)ccc2S/C1=C/c1ccccc1Cl`, > 80 µM (inactive).
In the case of `CN(C)CCNC(=O)c1ccc2c(c1)NC(=O)CO2` it was > 80 µM (inactive); in that of `CCN(CC)CCNC(=O)c1ccc2c(c1)NC(=O)/C(=C\c1ccccc1F)S2`, > 80 µM (inactive); in that of `CCN(CC)CCNC(=O)c1ccc2c(c1)NC(=O)/C(=C\c1cccc(C)c1)S2`, > 80 µM (inactive).
On to `CN1CCCC1CCNC(=O)c1ccc2c(c1)NC(=O)/C(=C/c1ccccc1F)S2` (configuration not stated), for which the IC50 was > 80 µM (inactive).
Next, `O=C1Nc2cc(C(=O)NCCN3CCCC3)ccc2S/C1=C/c1ccccc1F`: > 80 µM (inactive).
Next, `O=C(Nc1nnc(S(=O)(=O)N2CCCCCC2)s1)c1ccccc1F`: > 80 µM (inactive).
In the case of `CCN(CC)CCNC(=O)c1ccc2c(c1)N(Cc1ccccc1Cl)C(=O)c1ccccc1S2` it was > 80 µM (inactive).
For the compound `O=C1Nc2cc(C(=O)NCCN3CCOCC3)ccc2S/C1=C\c1ccccc1F`, the IC50 is > 80 µM (inactive).
In the case of `CCN1CCCC1CNC(=O)c1ccc2c(c1)NC(=O)c1ccccc1O2` (configuration not stated) it was 24.2 µM; in that of `COc1cccc(C(=O)Nc2nnc(S(=O)(=O)N3CCCCCC3)s2)c1`, > 80 µM (inactive).
Turning to `Cc1cccc(C(=O)Nc2nnc(S(=O)(=O)N3CCC(C)CC3)s2)c1`, the IC50 is > 80 µM (inactive).
Next, `O=C1COc2ccc(C(=O)NCCN3CCOCC3)cc2N1`: > 80 µM (inactive); `CCN(CC)CCNC(=O)c1ccc2c(c1)NC(=O)/C(=C/c1ccccc1)S2`: > 80 µM (inactive); `O=C1Nc2cc(C(=O)NCCN3CCCC3)ccc2S/C1=C/c1ccccc1Cl`: > 80 µM (inactive).
In the case of `O=C(Nc1nnc(S(=O)(=O)N2CCCCCC2)s1)c1ccc(F)cc1` it was > 80 µM (inactive); in that of `O=C(NCCN1CCCCC1)c1ccc2c(c1)NC(=O)c1ccccc1O2`, 50.3 µM.
Next, `CCN(CC)CCNC(=O)c1ccc2c(c1)NC(=O)/C(=C\c1ccc(OC)cc1)S2`: > 80 µM (inactive).
For `CCOc1ccc(C(=O)Nc2nnc(S(=O)(=O)N3CCCCCC3)s2)cc1`, the IC50 is > 80 µM (inactive).
As to `O=C(Nc1nnc(S(=O)(=O)N2CCCc3ccccc32)s1)c1cccc(F)c1`, the IC50 was > 80 µM (inactive).
For `O=C(Nc1nnc(S(=O)(=O)N2CCCCCC2)s1)c1ccco1`, the IC50 was > 80 µM (inactive).
In the case of `CCN(CC)CCNC(=O)c1ccc2c(c1)NC(=O)c1ccccc1O2` it was > 80 µM (inactive); in that of `CCN1CCCC1CNC(=O)c1ccc2c(c1)NC(=O)CS2` (configuration not stated), > 80 µM (inactive).
Next, `CCN(CCNC(=O)c1ccc2c(c1)N(CC)C(=O)c1ccccc1S2)c1ccccc1`: > 80 µM (inactive); `CCCN(CCC)CCNC(=O)c1ccc2c(c1)NC(=O)/C(=C\c1ccc(C)cc1)S2`: > 80 µM (inactive); `O=C1Nc2cc(C(=O)NCCN3CCCC3)ccc2S/C1=C\c1ccccc1F`: > 80 µM (inactive).
Next, `COc1ccc(/C=C2/Sc3ccc(C(=O)NCCN(C)C)cc3NC2=O)cc1`: > 80 µM (inactive); `CN1CCN(C(=O)c2ccc3c(c2)NC(=O)/C(=C/c2ccccc2Cl)S3)CC1`: > 80 µM (inactive); `CCN1CCCC1CNC(=O)c1ccc2c(c1)NC(=O)/C(=C\c1ccccc1Cl)S2` (configuration not stated): > 80 µM (inactive).
On to `O=C(Nc1nnc(S(=O)(=O)N2CCCCCC2)s1)c1cccc(Br)c1`, for which the IC50 was > 80 µM (inactive).
In the case of `CCN(CC)CCNC(=O)c1ccc2c(c1)NC(=O)/C(=C\c1ccc(OC)c(OC)c1)S2` it was > 80 µM (inactive).
As for `CCN1CCCC1CNC(=O)c1ccc2c(c1)NC(=O)/C(=C\c1ccccc1F)S2` (configuration not stated), the IC50 is > 80 µM (inactive).
Next, `Cc1cccc(C(=O)Nc2nnc(S(=O)(=O)N3c4ccccc4CC3C)s2)c1` (configuration not stated): > 80 µM (inactive).
In the case of `COc1ccccc1C(=O)Nc1nnc(S(=O)(=O)N2CCCCCC2)s1` it was > 80 µM (inactive).
Next, `CN(C)CCNC(=O)c1ccc2c(c1)NC(=O)c1ccccc1O2`: > 80 µM (inactive); `Cc1cccc(C(=O)Nc2nnc(S(=O)(=O)N3CCCc4ccccc43)s2)c1`: > 80 µM (inactive); `CCN(CC)CCNC(=O)c1ccc2c(c1)NC(=O)CO2`: > 80 µM (inactive).
With `O=C(Nc1nnc(S(=O)(=O)N2CCCCCC2)s1)C1CCCCC1`, the IC50 is > 80 µM (inactive).
In the case of `CCN(CC)CCNC(=O)c1ccc2c(c1)NC(=O)/C(=C\c1ccccc1Cl)S2` it was > 80 µM (inactive).
In the case of `Cc1cccc(/C=C2/Sc3ccc(C(=O)NCCN4CCCC4)cc3NC2=O)c1`, the IC50 was > 80 µM (inactive).
In the case of `CCN(CCNC(=O)c1ccc2c(c1)NC(=O)c1ccccc1S2)c1ccccc1` it was > 80 µM (inactive); in that of `CCN1CCC[C@H]1CNC(=O)c1ccc2c(c1)NC(=O)/C(=C/c1ccccc1F)S2`, > 80 µM (inactive); in that of `CCN1CCCC1CNC(=O)c1ccc2c(c1)NC(=O)/C(=C/c1cccc3ccccc13)S2` (configuration not stated), > 80 µM (inactive).
Next, `CCN1CCCC1CNC(=O)c1ccc2c(c1)N(Cc1ccccc1F)C(=O)c1ccccc1S2` (configuration not stated): > 80 µM (inactive); `Cc1ccccc1C(=O)Nc1nnc(S(=O)(=O)N2CCCCCC2)s1`: > 80 µM (inactive); `O=C1Nc2cc(C(=O)NCCN3CCCCCC3)ccc2S/C1=C/c1ccccc1F`: > 80 µM (inactive).
Next, `O=C(Nc1nnc(S(=O)(=O)N2CCCCCC2)s1)c1cccc(Cl)c1`: > 80 µM (inactive); `O=C(Nc1nnc(S(=O)(=O)N2CCCCCC2)s1)c1cccc(F)c1`: > 80 µM (inactive).
